Data: article PMC6194685, “The antityrosinase and antioxidant activities of flavonoids dominated by the number and location of phenolic hydroxyl groups” (Chinese Medicine, 2018)

Columns and labels:
[1] = discussion; no reference given; cited from earlier work
[2] = ABTS free radical scavenging activity; conditions: n = 3; read-out: IC50, ABTS free radical scavenging capacity
Method: According to the references of Wan et al., ABTS free radical scavenging capacity was measured. […] ABTS ^+ was produced by reacting 2.45 mmol/L potassium persulfate (K2S2O8) with the ABTS stock solution. The reaction lasted 12–16 h at room temperature in the dark. […] Samples (0.5 mL) were added to ABTS^+ (5 mL) for 6 min. The control group contains 0.5 mL of ethanol and 5 mL of ABTS^+ solution. Each sample was examined in three times and averaged.

[3] = system: lipid peroxidation in rat liver mitochondria; assay: Lipid peroxidation assay in liver mitochondria in vitro (Fe2+/vitamin C); type: biochemical, Sprague–Dawley (SD) rats; conditions: n = 3, read-out: IC50, inhibiting lipid peroxidation
Method: Using the diagnostic kits from Biyuntian (Shanghai, China), liver mitochondria were obtained. The liver mitochondria from Sprague–Dawley (SD) rats were obtained, according to the references of Zuo et al.. In the tubes, 1 mL of mitochondria liquid, 0.5 mL of antioxidant solution, 0.25 mL of 1 mM Vitamin C, and 0.25 mL of 0.1 mM Fe^2+ were added in turn. The positive control group contains 0.5 mL of 0.05 M PBS buffer, instead of the antioxidant solution. The blank group was added 1 mL of mitochondrial liquid and 1 mL of 0.05 M PBS buffer. […] The test tubes were placed in the water for 30 min at 95 °C, then centrifuged for 10 min at 1372g. The wavelength used was 532 nm. Each sample was examined in three times and averaged.

[4] = Hydroxyl free radical scavenging activity; conditions: n = 3; read-out: IC50, hydroxyl free radical scavenging capacity
Method: In the tube, 0.2 mL of samples, 1 mL of PBS buffer (pH = 7.4),0.2 mL of 5 mmol/L phenanthroline, 0.2 mL of 7.5 mmol/L FeSO4, 0.2 mL of 0.05% H2O2, 3.2 mL of ethanol were added in turn for 20 min in 37 °C. The wavelength used was 536 nm. Each sample was examined in three times and averaged. The hydroxyl free radical scavenging activity was examined according to the formula:4 Hydroxylfreeradicalscavengingactivity%=AC-AS/AC×100% where AS is the absorbance value with samples and AC is the absorbance value without samples.

[5] = DPPH free radical scavenging activity; conditions: n = 3; read-out: IC50, DPPH free radical scavenging capacity
Method: According to the references of Lee et al., DPPH free radical scavenging capacity was measured. […] In room temperature and a dark environment, the reaction lasted 30 min. […] Each sample was examined in three times and averaged.

mushroom tyrosinase [6] = target: T1, mushroom tyrosinase (Agaricus bisporus, UniProt C7FF04); assay: Determination of the inhibition type and inhibition constant (Lineweaver–Burk plots); type: biochemical; conditions: for inhibition type: Lineweaver–Burk double-reciprocal plots, tyrosinase diphenolase; for KIS (inhibitor binding with enzyme–substrate complex): plot of vertical intercept (1/Vmapp) versus inhibitor concentration, oxidation of L-DOPA
Method: By Lineweaver–Burk plot, the inhibition type was assayed. The inhibition constant was assayed by the second plots of the apparent Km/Vmapp or 1/Vmapp versus the concentration of the inhibitor.

[7] = Superoxide free radical scavenging activity (pyrogallol self-oxidation); conditions: n = 3; read-out: IC50, superoxide free radical scavenging capacity
Method: According to the references of Shen et al., superoxide free radical scavenging capacity was measured using Varioskan Flash multifunction microplate reader (Thermo scientific, USA) and 96 wells plates. Each well was added 264 μL PBS buffer (pH = 8.2), 12 μL samples of different concentrations, 25 °C for 10 min. Then 24 μL of 1.25 mmoL/L pyrogallol solution was added and shaken 3 s quickly. The blank group is ethanol. Absorbance values were measured every 30 s. The reaction lasted 5 min in 37 °C. The wavelength used was 320 nm. Each sample was measured in triplicate and averaged. The slope is the self-oxidation rate of pyrogallol. The lower slope indicated the better superoxide free radicals scavenging capacity. Each sample was examined in three times and averaged. The inhibitory rate was examined according to the formula:5 Superoxidefreeradicalscavengingactivity%=SC-SS/SC×100% where SC is the slope value without samples and SS is the slope value with samples.

mushroom tyrosinase [8] = target: T1, mushroom tyrosinase; assay: Determination of the inhibition type and inhibition constant (Lineweaver–Burk plots); type: biochemical; conditions: plots of enzyme activity versus enzyme concentration, oxidation of L-DOPA
[9] = set-up: method as in Xu [31]; conditions: ref Xu [31]; cited from earlier work
[10] = set-up: method as in Xu [31]; conditions: ref Xu [31]; cited from earlier work; remark: listed apart in the source
[11] = set-up: method as in Xu [31]; conditions: ref Xu [31]; cited from earlier work; remark: listed apart in the source
[12] = discussion; no reference given; cited from earlier work; remark: listed apart in the source

T1 sequence (C7FF04 2-392): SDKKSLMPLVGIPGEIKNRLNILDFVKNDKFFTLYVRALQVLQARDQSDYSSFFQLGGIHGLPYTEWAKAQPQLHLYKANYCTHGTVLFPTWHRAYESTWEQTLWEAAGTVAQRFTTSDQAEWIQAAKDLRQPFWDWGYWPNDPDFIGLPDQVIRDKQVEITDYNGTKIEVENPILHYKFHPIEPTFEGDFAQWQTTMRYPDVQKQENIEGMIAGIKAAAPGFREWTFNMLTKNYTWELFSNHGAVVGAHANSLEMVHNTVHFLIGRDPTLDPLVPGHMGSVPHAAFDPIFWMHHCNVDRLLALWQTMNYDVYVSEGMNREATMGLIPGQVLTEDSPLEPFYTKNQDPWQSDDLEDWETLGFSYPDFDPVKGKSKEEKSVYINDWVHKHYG
T1 sequence (G1K3P4 1-150 partner): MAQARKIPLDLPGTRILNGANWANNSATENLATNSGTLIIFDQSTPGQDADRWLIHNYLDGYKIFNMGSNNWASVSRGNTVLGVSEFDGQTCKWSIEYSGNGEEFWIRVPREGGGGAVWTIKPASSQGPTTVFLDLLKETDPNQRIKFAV

Compound	maximum inhibition, DPPH-radical scavenging assay [1]	IC50 [2]	IC50 [3]	IC50 [4]	IC50 [5]	inhibition type (mushroom tyrosinase [6])	KIS (inhibitor binding with enzyme–substrate complex) (mushroom tyrosinase [6])	IC50 [7]	inhibitory mechanism (reversibility) (mushroom tyrosinase [8])	scavenging capacity of alkane radical (ROO·) [9]	scavenging capacity of hydroxyl radical (·OH) [10]	scavenging capacity of superoxide radical (O2·) [11]	reducing ability [12]	KIS (Fig. 3c) (mushroom tyrosinase [6]; plot of intercept versus concentration of shikonin)
CC(C)=CCCC1=CC(=O)c2c(O)ccc(O)c2C1=O [deoxy-shikonin]	0.440%	–	–	–	–	–	–	–	–	–	–	–	–	–
Isoeugenol	–	36.4 µM	25.1 µM	32.5 µM	102 µM	same inhibitor type as shikonin	64.7 µM	38.2 µM	reversible inhibitors	–	–	–	–	–
O=c1cc(-c2ccccc2)oc2cc(O)c(O)c(O)c12 [Baicalein]	–	9.09 µM	12.5 µM	11.6 µM	58.6 µM	same inhibitor type as shikonin	38.4 µM	16.1 µM	reversible inhibitors	–	–	–	–	–
O=C1c2c(O)cc(O)cc2O[C@H](c2cc(O)c(O)c(O)c2)[C@H]1O [Dihydromyricetin]	–	3.41 µM	6.25 µM	4.2 µM	12.4 µM	same inhibitor type as shikonin	23.6 µM	7.6 µM	reversible inhibitors	63.9%	83.9%	90.0%	–	–
CC(C)=CC[C@@H](O)C1=CC(=O)c2c(O)ccc(O)c2C1=O [Shikonin]	–	27.3 µM	16.7 µM	18.3 µM	83.2 µM	competitive–uncompetitive mixed type inhibitor	48.6 µM	31.5 µM	reversible inhibitor	–	–	–	0.431%	48.6 µmol/L
O=C(/C=C/c1ccc(O)c(O)c1)O[C@H](Cc1ccc(O)c(O)c1)C(=O)O [Rosmarinic acid]	–	6.82 µM	8.33 µM	8.3 µM	28.5 µM	same inhibitor type as shikonin	29.8 µM	12.3 µM	reversible inhibitors	–	–	–	–	–
